Source: patent publication US20080255186A1, “Pyrazolo[3,4-B]Pyridine Compound, and Its Use as a Pde4 Inhibitor” (priority 2005, published 2008)

Target: T1, PDE6 (from bovine retina) (Bos taurus, UniProt P11541+P23439)
T1 construct: PDE6 can be purified from bovine retina; from tissue; host or cells: bovine retina
T1 sequence (P11541 2-856 limits assumed): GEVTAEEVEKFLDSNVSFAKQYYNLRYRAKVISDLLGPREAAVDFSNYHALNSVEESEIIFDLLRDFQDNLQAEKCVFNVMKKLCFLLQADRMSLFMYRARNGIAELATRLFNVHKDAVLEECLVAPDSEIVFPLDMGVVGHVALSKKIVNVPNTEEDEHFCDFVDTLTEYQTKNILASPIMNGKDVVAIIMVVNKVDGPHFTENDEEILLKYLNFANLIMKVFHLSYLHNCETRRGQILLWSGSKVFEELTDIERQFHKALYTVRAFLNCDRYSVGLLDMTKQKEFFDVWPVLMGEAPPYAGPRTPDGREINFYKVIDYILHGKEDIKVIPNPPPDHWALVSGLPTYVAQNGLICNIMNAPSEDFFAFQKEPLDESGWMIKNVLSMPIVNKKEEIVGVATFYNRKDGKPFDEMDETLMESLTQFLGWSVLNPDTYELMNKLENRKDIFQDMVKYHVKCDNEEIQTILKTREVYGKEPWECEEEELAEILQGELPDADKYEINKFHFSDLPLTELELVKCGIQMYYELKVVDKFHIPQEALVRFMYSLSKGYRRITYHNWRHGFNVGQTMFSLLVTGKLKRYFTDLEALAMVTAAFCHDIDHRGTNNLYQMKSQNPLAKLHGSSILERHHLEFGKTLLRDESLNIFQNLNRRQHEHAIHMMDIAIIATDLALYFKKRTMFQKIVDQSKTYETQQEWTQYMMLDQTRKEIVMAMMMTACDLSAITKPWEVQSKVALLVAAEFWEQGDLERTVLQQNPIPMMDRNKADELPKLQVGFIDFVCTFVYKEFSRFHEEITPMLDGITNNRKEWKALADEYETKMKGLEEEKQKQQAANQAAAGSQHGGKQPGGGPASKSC
T1 sequence (P23439 2-850 limits assumed): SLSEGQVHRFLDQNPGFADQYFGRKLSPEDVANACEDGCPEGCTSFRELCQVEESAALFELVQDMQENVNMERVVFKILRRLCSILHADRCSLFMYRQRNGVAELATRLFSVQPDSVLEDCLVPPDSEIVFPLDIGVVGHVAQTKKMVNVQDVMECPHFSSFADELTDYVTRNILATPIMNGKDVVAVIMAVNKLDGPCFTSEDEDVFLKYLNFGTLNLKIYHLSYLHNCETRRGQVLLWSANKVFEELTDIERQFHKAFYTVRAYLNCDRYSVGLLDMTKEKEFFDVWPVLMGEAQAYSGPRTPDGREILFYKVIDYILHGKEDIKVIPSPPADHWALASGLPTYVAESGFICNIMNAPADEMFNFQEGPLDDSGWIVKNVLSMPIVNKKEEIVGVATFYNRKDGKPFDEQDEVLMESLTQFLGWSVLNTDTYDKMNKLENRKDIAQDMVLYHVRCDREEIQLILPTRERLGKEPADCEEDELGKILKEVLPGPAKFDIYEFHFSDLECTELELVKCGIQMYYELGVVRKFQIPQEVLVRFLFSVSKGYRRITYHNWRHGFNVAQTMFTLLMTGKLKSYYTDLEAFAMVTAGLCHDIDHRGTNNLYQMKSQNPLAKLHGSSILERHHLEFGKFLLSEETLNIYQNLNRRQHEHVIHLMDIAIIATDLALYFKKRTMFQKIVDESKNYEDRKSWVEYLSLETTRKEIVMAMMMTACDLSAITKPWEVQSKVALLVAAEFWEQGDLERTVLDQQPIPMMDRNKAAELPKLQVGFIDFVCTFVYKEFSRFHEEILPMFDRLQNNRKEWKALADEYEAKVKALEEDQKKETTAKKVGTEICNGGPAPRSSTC
Experiment: PDE6 inhibition (FP or SPA general type of assay)
Format: biochemical
Details: in the particular assays used
From the text: PDE6 can be purified from bovine retina as described by: P. Catty and P. Deterre, “Activation and solubilization of the retinal cGMP-specific phosphodiesterase by limited proteolysis”, Eur. J. Biochem., 1991, 199, 263-269; A. Tar et al. “Purification of bovine retinal cGMP phosphodiesterase”, Methods in Enzymology, 1994, 238, 3-12; and/or D. Srivastava et al. “Effects of magnesium on cyclic GMP hydrolysis by the bovine retinal rod cyclic GMP phosphodiesterase”, Biochem. J., 1995, 308, 653-658.
The ability of compounds to inhibit catalytic activity at PDE4B or 4D (human recombinant), PDE3 (from bovine aorta), PDE5 (human recombinant) or PDE6 (from bovine retina) can optionally be determined by Scintillation Proximity Assay (SPA) in a 96-well format.
Test compounds (as a solution in DMSO, suitably about 2 microlitre (ul) volume of DMSO solution) are preincubated at ambient temperature (room temperature, e.g. 19-23° C.) in Wallac Isoplates (code 1450-514) with PDE enzyme in 50 mM Tris-HCl buffer pH 7.5, 8.3 mM MgCl2, 1.7 mM EGTA, 0.05% (w/v) bovine serum albumin for 10-30 minutes (usually 30 minutes). […] Bound radioactive product is measured using a WALLAC TRILUX 1450 Microbeta scintillation counter. […] Curves are analysed using ActivityBase and XLfit (ID Business Solutions Limited, 2 Ocean Court, Surrey Research Park, Guildford, Surrey GU2 7QB, United Kingdom). […]

CCc1nc2c(cnn2CC)c(NC2CCOCC2)c1CNC(=O)c1cc(C)no1 [Example 1, N-{[1,6-diethyl-4-(tetrahydro-2H-pyran-4-ylamino)-1H-pyrazolo[3,4-b]pyridin-5-yl]methyl}-3-methyl-5-isoxazolecarboxamide]
PDE4B pIC50 compared with PDE6 pIC50 (selectivity): inhibits PDE4B more strongly than it inhibits PDE3, PDE5 and PDE6
